Test results: PubChem BioAssay (NCI)
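Briefly, cells in 96-well plates were exposed to five compound concentrations for 48 h, and endpoints were estimated by linear interpolation. TGI: total growth inhibition.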

Experiments:
Assay in all cases: NCI tumour cell line growth inhibition, 48 h
OVCAR-4 ovarian = system: OVCAR-4 ovarian
HOP-92 NSCLC = system: HOP-92 NSCLC
OVCAR-5 ovarian = system: OVCAR-5 ovarian
LOX IMVI melanoma = system: LOX IMVI melanoma
U251 CNS = system: U251 CNS
UACC-62 melanoma = system: UACC-62 melanoma
RPMI-8226 leukemia = system: RPMI-8226 leukemia
UACC-257 melanoma = system: UACC-257 melanoma
MDA-MB-435 = system: MDA-MB-435
M14 melanoma = system: M14 melanoma

With `C=C1CC(CNc2cc(Cl)nc(N)n2)C1` the TGI (OVCAR-4 ovarian) was greater than 100 µM, the TGI (HOP-92 NSCLC) was greater than 100 µM and the TGI (OVCAR-5 ovarian) was greater than 100 µM. It also gave a TGI (LOX IMVI melanoma) greater than 100 µM, a TGI (U251 CNS) greater than 100 µM and a TGI (UACC-62 melanoma) greater than 100 µM. It also gave a TGI (RPMI-8226 leukemia) greater than 100 µM, a TGI (UACC-257 melanoma) greater than 100 µM and a TGI (MDA-MB-435) greater than 100 µM.

`CSc1nc(-c2cc3c(c(SC)n2)CCC3)cc2c1CCC2` gave a TGI (M14 melanoma) greater than 100 µM, a TGI (OVCAR-4 ovarian) greater than 100 µM and a TGI (OVCAR-5 ovarian) greater than 100 µM. It also gave a TGI (U251 CNS) greater than 100 µM, a TGI (UACC-62 melanoma) greater than 100 µM and a TGI (RPMI-8226 leukemia) greater than 100 µM. The TGI (UACC-257 melanoma) was greater than 100 µM and the TGI (MDA-MB-435) was greater than 100 µM.

Compound `CCCCCC(/C=N/NC(N)=S)C(O)(C(F)(F)F)C(F)(F)F` (stereo not drawn) has a TGI (M14 melanoma) greater than 10 µM, a TGI (OVCAR-4 ovarian) greater than 10 µM and a TGI (HOP-92 NSCLC) greater than 10 µM. For the same compound, the TGI (OVCAR-5 ovarian) was greater than 10 µM, the TGI (LOX IMVI melanoma) was greater than 10 µM and the TGI (U251 CNS) was greater than 10 µM. The TGI (UACC-62 melanoma) was greater than 10 µM, the TGI (UACC-257 melanoma) was greater than 10 µM and the TGI (MDA-MB-435) was greater than 10 µM.

Work on `CCCN(CCC)C(=O)Cc1c2n(c3ccccc13)Cc1ccccc1-2` yielded a TGI (M14 melanoma) greater than 100 µM, a TGI (OVCAR-4 ovarian) greater than 100 µM and a TGI (HOP-92 NSCLC) of 57.7 µM. For the same compound, the TGI (LOX IMVI melanoma) was greater than 100 µM, the TGI (U251 CNS) was greater than 100 µM and the TGI (UACC-62 melanoma) was greater than 100 µM. It also gave a TGI (RPMI-8226 leukemia) greater than 100 µM and a TGI (UACC-257 melanoma) greater than 100 µM.

With `c1ccc(-c2cc(-c3cc(-c4ccccc4)n[nH]3)[nH]n2)cc1` the TGI (M14 melanoma) was greater than 100 µM, the TGI (OVCAR-4 ovarian) was greater than 100 µM and the TGI (OVCAR-5 ovarian) was greater than 100 µM. The TGI (U251 CNS) was greater than 100 µM, the TGI (UACC-62 melanoma) was greater than 100 µM and the TGI (UACC-257 melanoma) was greater than 100 µM. For the same compound, the TGI (MDA-MB-435) was greater than 100 µM.

`CC1(C)SC2C(NC(=O)Cc3ccccc3)C(=O)N2C1C(=O)O` (stereo not drawn) gave a TGI (M14 melanoma) greater than 100 µM, a TGI (OVCAR-4 ovarian) greater than 100 µM and a TGI (HOP-92 NSCLC) greater than 100 µM. The TGI (OVCAR-5 ovarian) was greater than 100 µM, the TGI (LOX IMVI melanoma) was greater than 100 µM and the TGI (U251 CNS) was greater than 100 µM. The TGI (UACC-62 melanoma) was greater than 100 µM, the TGI (UACC-257 melanoma) was greater than 100 µM and the TGI (MDA-MB-435) was greater than 100 µM.

`N#Cc1nc(Cc2ccccc2)oc1N` gave a TGI (M14 melanoma) greater than 100 µM, a TGI (OVCAR-4 ovarian) greater than 100 µM and a TGI (OVCAR-5 ovarian) greater than 100 µM. It also gave a TGI (LOX IMVI melanoma) greater than 100 µM, a TGI (U251 CNS) greater than 100 µM and a TGI (RPMI-8226 leukemia) greater than 100 µM. The TGI (UACC-257 melanoma) was greater than 100 µM and the TGI (MDA-MB-435) was greater than 100 µM.

`COc1ccc(/C=N/n2c(Cc3ccc(Cl)cc3)n[nH]c2=O)cc1` showed a TGI (M14 melanoma) greater than 100 µM, a TGI (OVCAR-4 ovarian) greater than 100 µM and a TGI (HOP-92 NSCLC) of 44.7 µM. For the same compound, the TGI (OVCAR-5 ovarian) was greater than 100 µM, the TGI (U251 CNS) was 33.6 µM and the TGI (UACC-62 melanoma) was greater than 100 µM. The TGI (RPMI-8226 leukemia) was greater than 100 µM, the TGI (UACC-257 melanoma) was greater than 100 µM and the TGI (MDA-MB-435) was greater than 100 µM.

In the case of `Cc1cc2c(cc1Cl)Sc1nnc(C)n1S2(=O)=O`, the TGI (M14 melanoma) is reported as 30.8 µM, the TGI (OVCAR-4 ovarian) is reported as 27.2 µM and the TGI (HOP-92 NSCLC) is reported as 24.1 µM. It also gave a TGI (OVCAR-5 ovarian) of 97.7 µM, a TGI (LOX IMVI melanoma) of 23.6 µM and a TGI (U251 CNS) of 42.8 µM. The TGI (UACC-62 melanoma) was 30.6 µM, the TGI (UACC-257 melanoma) was 30.5 µM and the TGI (MDA-MB-435) was 26.6 µM.

Work on `Cc1ccc(NC(=S)NNC(=O)c2cc(-c3ccccc3)nc3ccccc23)cc1C` yielded a TGI (M14 melanoma) of 33.8 µM, a TGI (OVCAR-4 ovarian) of 58.2 µM and a TGI (HOP-92 NSCLC) of 48.8 µM. It also gave a TGI (OVCAR-5 ovarian) of 76.9 µM, a TGI (U251 CNS) of 49.4 µM and a TGI (UACC-62 melanoma) of 37 µM. It also gave a TGI (RPMI-8226 leukemia) of 59.2 µM, a TGI (UACC-257 melanoma) of 60.1 µM and a TGI (MDA-MB-435) of 59.5 µM.

Compound `Cn1c2c(c3ccccc31)CC(=O)N1CCCCC1C21OCCO1` (stereo not drawn) has a TGI (M14 melanoma) greater than 100 µM, a TGI (OVCAR-4 ovarian) greater than 100 µM and a TGI (HOP-92 NSCLC) greater than 100 µM. The TGI (OVCAR-5 ovarian) was greater than 100 µM, the TGI (U251 CNS) was greater than 100 µM and the TGI (UACC-62 melanoma) was greater than 100 µM. For the same compound, the TGI (RPMI-8226 leukemia) was greater than 100 µM, the TGI (UACC-257 melanoma) was greater than 100 µM and the TGI (MDA-MB-435) was greater than 100 µM.

With `O=C(NCCCCNCCCNC(=O)C(F)(F)F)C(F)(F)F` the TGI (M14 melanoma) was greater than 100 µM, the TGI (OVCAR-4 ovarian) was greater than 100 µM and the TGI (HOP-92 NSCLC) was greater than 100 µM. It also gave a TGI (OVCAR-5 ovarian) greater than 100 µM, a TGI (U251 CNS) greater than 100 µM and a TGI (UACC-62 melanoma) greater than 100 µM. The TGI (RPMI-8226 leukemia) was greater than 100 µM, the TGI (UACC-257 melanoma) was greater than 100 µM and the TGI (MDA-MB-435) was greater than 100 µM.

`COc1ccc(S(=O)Cc2cc(OC)ccc2OC)cc1` (stereo not drawn) gave a TGI (M14 melanoma) greater than 100 µM, a TGI (OVCAR-4 ovarian) greater than 100 µM and a TGI (HOP-92 NSCLC) greater than 100 µM. It also gave a TGI (OVCAR-5 ovarian) greater than 100 µM, a TGI (LOX IMVI melanoma) greater than 100 µM and a TGI (U251 CNS) greater than 100 µM. For the same compound, the TGI (UACC-62 melanoma) was greater than 100 µM, the TGI (UACC-257 melanoma) was greater than 100 µM and the TGI (MDA-MB-435) was greater than 100 µM.

With `O=C(c1ccc(Cl)cc1)N(C(=S)N1CCN(c2ccccc2)CC1)c1ccccc1` the TGI (M14 melanoma) was greater than 100 µM, the TGI (OVCAR-4 ovarian) was greater than 100 µM and the TGI (HOP-92 NSCLC) was greater than 100 µM. For the same compound, the TGI (OVCAR-5 ovarian) was greater than 100 µM, the TGI (LOX IMVI melanoma) was greater than 100 µM and the TGI (U251 CNS) was greater than 100 µM. The TGI (UACC-62 melanoma) was greater than 100 µM, the TGI (RPMI-8226 leukemia) was greater than 100 µM and the TGI (UACC-257 melanoma) was greater than 100 µM.

`Nc1ccccc1Sc1ccc(Cl)cc1` gave a TGI (M14 melanoma) greater than 100 µM, a TGI (OVCAR-4 ovarian) greater than 100 µM and a TGI (HOP-92 NSCLC) of 41.1 µM. The TGI (OVCAR-5 ovarian) was greater than 100 µM, the TGI (LOX IMVI melanoma) was greater than 100 µM and the TGI (U251 CNS) was 36.2 µM. It also gave a TGI (UACC-62 melanoma) greater than 100 µM, a TGI (RPMI-8226 leukemia) of 67.9 µM and a TGI (UACC-257 melanoma) of 54.1 µM.

Compound `CCOC(=O)c1c(NC(=O)c2ccccc2)sc2c1CCC2` has a TGI (M14 melanoma) greater than 100 µM, a TGI (OVCAR-5 ovarian) greater than 100 µM and a TGI (UACC-62 melanoma) greater than 100 µM. The TGI (RPMI-8226 leukemia) was greater than 100 µM and the TGI (UACC-257 melanoma) was greater than 100 µM.

`Cn1c2ccccc2n2c3ccccc3c(=S)c(C#N)c12` was tested, and the TGI (M14 melanoma) was greater than 100 µM, the TGI (OVCAR-4 ovarian) was greater than 100 µM and the TGI (OVCAR-5 ovarian) was greater than 100 µM. The TGI (LOX IMVI melanoma) was greater than 100 µM, the TGI (U251 CNS) was greater than 100 µM and the TGI (UACC-62 melanoma) was greater than 100 µM. For the same compound, the TGI (RPMI-8226 leukemia) was greater than 100 µM, the TGI (UACC-257 melanoma) was greater than 100 µM and the TGI (MDA-MB-435) was greater than 100 µM.

`C=CCN1C(=O)/C(=C/c2cccs2)N=C1SC1OC(COC(=O)c2ccccc2)C(OC(=O)c2ccccc2)C1OC(=O)c1ccccc1` (stereo not drawn) showed a TGI (OVCAR-4 ovarian) greater than 100 µM, a TGI (HOP-92 NSCLC) greater than 100 µM and a TGI (OVCAR-5 ovarian) greater than 100 µM. It also gave a TGI (LOX IMVI melanoma) greater than 100 µM, a TGI (U251 CNS) greater than 100 µM and a TGI (UACC-62 melanoma) greater than 100 µM. It also gave a TGI (RPMI-8226 leukemia) greater than 100 µM, a TGI (UACC-257 melanoma) greater than 100 µM and a TGI (MDA-MB-435) greater than 100 µM.
